# Test results: patent US9409892B2, “4-hydroxy-isoquinoline compounds as HIF hydroxylase inhibitors” (FIBROGEN, INC., priority 2012, dated 2016)
# What was measured:
# PHD2 (EGLN1) = PHD2 (EGLN1) (Homo sapiens (Human), UniProt Q9GZT9); experiment: HIF-PH assay (14CO2 capture), PHD2 enzyme inhibition; type: biochemical; conditions: Table 1; individual measurement; read-out: IC50 (μM) PHD2
# Description: (§1) Ketoglutaric acid α-[1-^14C]-sodium salt, alpha-ketoglutaric acid sodium salt, and HPLC purified peptide may be obtained from commercial sources, e.g., Perkin-Elmer (Wellesley Mass.), Sigma-Aldrich, and SynPep Corp. (Dublin Calif.), respectively. Peptides for use in the assay may be fragments of HIFα as described above or as disclosed in International Publication WO 2005/118836, incorporated by reference herein. HIF-pH, e.g., PHD1 (EGLN2) or PHD2 (EGLN1), can be expressed in, e.g., insect Hi5 cells, and partially purified, e.g., through a SP ion exchange chromatography column. Enzyme activity is determined by capturing ^14CO2 using an assay described by Kivirikko and Myllyla (1982, Methods Enzymol. 82:245-304). Assay reactions contain 50 mM HEPES (pH 7.4), 100 μM α-ketoglutaric acid sodium salt, 0.30 mCi/mL ketoglutaric acid α-[1-^14C]-sodium salt, 40 μM FeSO4, 1 mM ascorbate, 1541.8 units/mL Catalase, with or without 50 μM peptide substrate and various concentrations of compound of the invention. Reactions are initiated by addition of HIF-PH enzyme.
# (§2) The peptide-dependent percent turnover is calculated by subtracting percent turnover in the absence of peptide from percent turnover in the presence of substrate peptide. Percent inhibition and IC50 are calculated using peptide-dependent percent turnover at given inhibitor concentrations. Calculation of IC50 values for each inhibitor is conducted using GraFit software (Erithacus Software Ltd., Surrey UK).
# (§3) The PHD2/PHD1 is the ratio of the IC50 of the compound for each enzyme.
# PHD1 (EGLN2) = PHD1 (EGLN2) (Homo sapiens (Human), UniProt Q96KS0); experiment: HIF-PH assay (14CO2 capture), PHD1 enzyme inhibition; type: biochemical; conditions: for IC50: individual measurement, read-out: IC50 (μM) PHD1
# Description: as §1, §2, §3
# [1] = Table 1, ratio of the IC50 of the compound for each enzyme
# [2] = Table 2 comparative data, IC50 PHD2/IC50 PHD1
# Sequence of PHD1 (EGLN2) (Q96KS0 whole entry): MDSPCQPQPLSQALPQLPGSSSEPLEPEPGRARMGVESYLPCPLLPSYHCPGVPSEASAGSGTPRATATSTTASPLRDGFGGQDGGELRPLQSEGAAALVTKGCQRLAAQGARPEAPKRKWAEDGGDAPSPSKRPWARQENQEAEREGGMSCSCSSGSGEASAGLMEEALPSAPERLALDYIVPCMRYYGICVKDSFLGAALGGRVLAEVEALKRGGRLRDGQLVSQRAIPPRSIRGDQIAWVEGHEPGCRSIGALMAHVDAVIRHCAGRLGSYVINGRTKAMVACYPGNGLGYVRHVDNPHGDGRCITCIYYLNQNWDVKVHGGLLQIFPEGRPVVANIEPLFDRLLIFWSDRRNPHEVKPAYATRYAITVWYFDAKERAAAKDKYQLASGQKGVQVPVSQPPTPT
# Sequence of PHD2 (EGLN1) (Q9GZT9 whole entry, the tested form may be a part): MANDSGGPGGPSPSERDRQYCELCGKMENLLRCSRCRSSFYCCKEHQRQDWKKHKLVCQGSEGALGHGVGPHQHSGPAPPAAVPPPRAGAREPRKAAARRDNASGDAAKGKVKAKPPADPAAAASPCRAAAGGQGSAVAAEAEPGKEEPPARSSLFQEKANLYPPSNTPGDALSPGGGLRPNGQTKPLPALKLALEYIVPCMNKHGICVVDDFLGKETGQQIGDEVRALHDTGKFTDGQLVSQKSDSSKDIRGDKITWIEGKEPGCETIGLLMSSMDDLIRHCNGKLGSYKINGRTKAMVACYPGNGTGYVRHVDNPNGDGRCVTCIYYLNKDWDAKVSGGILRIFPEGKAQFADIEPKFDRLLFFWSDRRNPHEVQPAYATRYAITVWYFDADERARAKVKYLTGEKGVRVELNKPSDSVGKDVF
smiles,measurement,setting,value
"CC(C)(CC(=O)O)NC(=O)c1ncc2cc(Oc3ccccc3)ccc2c1O [Compound 6, 3-[(4-Hydroxy-7-phenoxy-isoquinoline-3-carbonyl)-amino]-3-methyl-butyric acid]",IC50,PHD2 (EGLN1),192 µM
same,IC50,PHD1 (EGLN2); Table 1,8.19 µM
same,PHD2/PHD1,PHD1 (EGLN2); [1],23
same,PHD2/PHD1,PHD1 (EGLN2); [2],23
"O=C(NCC[C@H](O)C(=O)O)c1ncc2cc(Oc3ccccc3)ccc2c1O [Compound 7, 2-(S)-Hydroxy-4-[(4-hydroxy-7-phenoxy-isoquinoline-3-carbonyl)-amino]-butyric acid]",IC50,PHD2 (EGLN1),52.7 µM
same,IC50,PHD1 (EGLN2); Table 1,3.02 µM
same,PHD2/PHD1,PHD1 (EGLN2); [1],17
"CC(C)(CCNC(=O)c1ncc2cc(Oc3ccccc3)ccc2c1O)C(=O)O [Compound 8, 4-[(4-Hydroxy-7-phenoxy-isoquinoline-3-carbonyl)-amino]-2,2-dimethyl-butyric acid]",IC50,PHD2 (EGLN1),119 µM
same,IC50,PHD1 (EGLN2); Table 1,11.6 µM
same,PHD2/PHD1,PHD1 (EGLN2); [1],10
"N[C@@H](CNC(=O)c1ncc2cc(Oc3ccccc3)ccc2c1O)C(=O)O [Compound 9, 2-(S)-Amino-3-[(4-hydroxy-7-phenoxy-isoquinoline-3-carbonyl)-amino]-propionic acid]",IC50,PHD2 (EGLN1),> 200 µM
same,IC50,PHD1 (EGLN2); Table 1,33.9 µM
same,PHD2/PHD1,PHD1 (EGLN2); [1],6
"N#Cc1nc(C(=O)NCCC(=O)O)c(O)c2ccc(Oc3ccccc3)cc12 [Compound 10, 3-[(1-Cyano-4-hydroxy-7-phenoxy-isoquinoline-3-carbonyl)-amino]-propionic acid]",IC50,PHD2 (EGLN1),1.33 µM
same,IC50,PHD1 (EGLN2); Table 1,0.24 µM
same,PHD2/PHD1,PHD1 (EGLN2); [1],5
same,PHD2/PHD1,PHD1 (EGLN2); [2],5
"CC(CC(=O)O)NC(=O)c1nc(C#N)c2cc(Oc3ccccc3)ccc2c1O (stereo not shown) [Compound 11, 3-[(1-Cyano-4-hydroxy-7-phenoxy-isoquinoline-3-carbonyl)-amino]butyric acid]",IC50,PHD2 (EGLN1),56.6 µM
same,IC50,PHD1 (EGLN2); Table 1,1.37 µM
same,PHD2/PHD1,PHD1 (EGLN2); [1],41
same,PHD2/PHD1,PHD1 (EGLN2); [2],41
"N#Cc1nc(C(=O)NCC2(C(=O)O)CC2)c(O)c2ccc(Oc3ccccc3)cc12 [Compound 12, 1-{[(1-Cyano-4-hydroxy-7-phenoxy-isoquinoline-3-carbonyl)-amino]-methyl}-cyclopropanecarboxylic acid]",IC50,PHD2 (EGLN1),1.62 µM
same,IC50,PHD1 (EGLN2); Table 1,0.17 µM
same,PHD2/PHD1,PHD1 (EGLN2); [1],9
"O=C(NCC1(C(=O)O)CCC1)c1ncc2cc(Oc3ccccc3)ccc2c1O [Compound 13, 1-{[(4-Hydroxy-7-phenoxy-isoquinoline-3-carbonyl)-amino]-methyl}-cyclobutanecarboxylic acid]",IC50,PHD2 (EGLN1),40.8 µM
same,IC50,PHD1 (EGLN2); Table 1,5.51 µM
same,PHD2/PHD1,PHD1 (EGLN2); [1],7
"N#Cc1nc(C(=O)NCC2(C(=O)O)CCC2)c(O)c2ccc(Oc3ccccc3)cc12 [Compound 14, 1-{[(1-Cyano-4-hydroxy-7-phenoxy-isoquinoline-3-carbonyl)-amino]-methyl}-cyclobutanecarboxylic acid]",IC50,PHD2 (EGLN1),3.52 µM
same,IC50,PHD1 (EGLN2); Table 1,0.31 µM
same,PHD2/PHD1,PHD1 (EGLN2); [1],11
"O=C(NCC1(C(=O)O)CCOCC1)c1ncc2cc(Oc3ccccc3)ccc2c1O [Compound 15, 4-{[(4-Hydroxy-7-phenoxy-isoquinoline-3-carbonyl)-amino]-methyl}-tetrahydro-pyran-4-carboxylic acid]",IC50,PHD2 (EGLN1),51.5 µM
same,IC50,PHD1 (EGLN2); Table 1,9.71 µM
same,PHD2/PHD1,PHD1 (EGLN2); [1],5
"N#Cc1nc(C(=O)NCC2(C(=O)O)CCOCC2)c(O)c2ccc(Oc3ccccc3)cc12 [Compound 16, 4-{[(1-Cyano-4-hydroxy-7-phenoxy-isoquinoline-3-carbonyl)-amino]-methyl}-tetrahydro-pyran-4-carboxylic acid]",IC50,PHD2 (EGLN1),24.3 µM
same,IC50,PHD1 (EGLN2); Table 1,1.89 µM
same,PHD2/PHD1,PHD1 (EGLN2); [1],13
"CCCC(CNC(=O)c1nc(C#N)c2cc(Oc3ccccc3)ccc2c1O)C(=O)O (stereo not shown) [Compound 17, 2-{[(1-Cyano-4-hydroxy-7-phenoxy-isoquinoline-3-carbonyl)-amino]-methyl}-pentanoic acid]",IC50,PHD2 (EGLN1),47.9 µM
same,IC50,PHD1 (EGLN2); Table 1,3.39 µM
same,PHD2/PHD1,PHD1 (EGLN2); [1],14
"CCCC(CCC)(CNC(=O)c1nc(C#N)c2cc(Oc3ccccc3)ccc2c1O)C(=O)O [Compound 18, 2-{[(1-Cyano-4-hydroxy-7-phenoxy-isoquinoline-3-carbonyl)-amino]-methyl}-2-propyl-pentanoic acid]",IC50,PHD2 (EGLN1),29.9 µM
same,IC50,PHD1 (EGLN2); Table 1,4.43 µM
same,PHD2/PHD1,PHD1 (EGLN2); [1],7
"N#Cc1nc(C(=O)NCC2(C(=O)O)CCCC2)c(O)c2ccc(Oc3ccccc3)cc12 [Compound 19, 1-{[(1-Cyano-4-hydroxy-7-phenoxy-isoquinoline-3-carbonyl)-amino]-methyl}-cyclopentanecarboxylic acid]",IC50,PHD2 (EGLN1),22.8 µM
same,IC50,PHD1 (EGLN2); Table 1,1.73 µM
same,PHD2/PHD1,PHD1 (EGLN2); [1],13
"COc1ccc(Oc2ccc3c(O)c(C(=O)NCC(C)(C)C(=O)O)nc(C#N)c3c2)cc1 [Compound 20, 3{-[1-Cyano-4-hydroxy-7-(4-methoxy-phenoxy)-isoquinoline-3-carbonyl]-amino}-2,2-dimethyl-propionic acid]",IC50,PHD2 (EGLN1),5.22 µM
same,IC50,PHD1 (EGLN2); Table 1,0.35 µM
same,PHD2/PHD1,PHD1 (EGLN2); [1],15
"COc1ccc(Oc2ccc3c(O)c(C(=O)NC(C)(C)CC(=O)O)nc(C#N)c3c2)cc1 [Compound 21, 3{-[1-Cyano-4-hydroxy-7-(4-methoxy-phenoxy)-isoquinoline-3-carbonyl]-amino}-3-methyl-butyric acid]",IC50,PHD2 (EGLN1),9.4 µM
same,IC50,PHD1 (EGLN2); Table 1,0.24 µM
same,PHD2/PHD1,PHD1 (EGLN2); [1],39
"CC(C)(CNC(=O)c1nc(C#N)c2cc(Oc3c(F)cccc3F)ccc2c1O)C(=O)O [Compound 22, 3-{[1-Cyano-7-(2,6-difluoro-phenoxy)-4-hydroxy-isoquinoline-3-carbonyl]-amino}-2,2-dimethyl-propionic acid]",IC50,PHD2 (EGLN1),15.1 µM
same,IC50,PHD1 (EGLN2); Table 1,0.93 µM
same,PHD2/PHD1,PHD1 (EGLN2); [1],16
"CC(C)(CNC(=O)c1ncc2cc(Oc3ccc(Cl)c(F)c3)ccc2c1O)C(=O)O [Compound 23, 3-{[7-(4-Chloro-3-fluoro-phenoxy)-4-hydroxy-isoquinoline-3-carbonyl]-amino}-2,2-dimethyl-propionic acid]",IC50,PHD2 (EGLN1),12.7 µM
same,IC50,PHD1 (EGLN2); Table 1,2.77 µM
same,PHD2/PHD1,PHD1 (EGLN2); [1],5
"O=C(O)CCNC(=O)c1ncc2cc(Oc3cccnc3)ccc2c1O [Compound 24, 3-{[4-Hydroxy-7-(pyridin-3-yloxy)-isoquinoline-3-carbonyl]-amino}-propionic acid]",IC50,PHD2 (EGLN1),23.3 µM
same,IC50,PHD1 (EGLN2); Table 1,2.31 µM
same,PHD2/PHD1,PHD1 (EGLN2); [1],10
same,PHD2/PHD1,PHD1 (EGLN2); [2],10
"O=C(O)CCNC(=O)c1ncc2cc(Oc3ccccn3)ccc2c1O [Compound 25, 3-{[4-Hydroxy-7-(pyridin-2-yloxy)-isoquinoline-3-carbonyl]-amino}-propionic acid]",IC50,PHD2 (EGLN1),44.6 µM
same,IC50,PHD1 (EGLN2); Table 1,4.57 µM
same,PHD2/PHD1,PHD1 (EGLN2); [1],10
"N#Cc1nc(C(=O)NCC2(C(=O)O)CCC2)c(O)c2ccc(Oc3c(F)cccc3F)cc12 [Compound 26, 1-({[1-Cyano-7-(2,6-difluoro-phenoxy)-4-hydroxy-isoquinoline-3-carbonyl]-amino}-methyl)-cyclobutanecarboxylic acid]",IC50,PHD2 (EGLN1),5.43 µM
same,IC50,PHD1 (EGLN2); Table 1,0.7 µM
same,PHD2/PHD1,PHD1 (EGLN2); [1],8
"CC(C)(CNC(=O)c1nc(C#N)c2cc(Oc3cccnc3)ccc2c1O)C(=O)O [Compound 27, 3{-[1-Cyano-4-hydroxy-7-(pyridin-3-yloxy)-isoquinoline-3-carbonyl]-amino}-2,2-dimethyl-propionic acid]",IC50,PHD2 (EGLN1),33.3 µM
same,IC50,PHD1 (EGLN2); Table 1,3.27 µM
same,PHD2/PHD1,PHD1 (EGLN2); [1],10
"N#Cc1nc(C(=O)NCC2(C(=O)O)CCC2)c(O)c2ccc(Oc3cccnc3)cc12 [Compound 28, 1-({[1-Cyano-4-hydroxy-7-(pyridin-3-yloxy)-isoquinoline-3-carbonyl]-amino}-methyl)-cyclobutanecarboxylic acid]",IC50,PHD2 (EGLN1),7.15 µM
same,IC50,PHD1 (EGLN2); Table 1,1.3 µM
same,PHD2/PHD1,PHD1 (EGLN2); [1],5
